Values of other authors in patent publication US7094735B2, “Herbicide microemulsion-forming-concentrates, microemulsions, and methods” (priority 2001, dated 2006).

Conditions: Table 1, exemplary pKa values of acidic herbicides

**Q.** Which pKas does the source give for `O=C(O)CCCOc1ccc(Cl)cc1Cl` [2,4-DB] here?
**A.** The pKas was 4.8.

**Q.** Which pKas does the source give for `O=C(O)c1cc(Oc2ccc(C(F)(F)F)cc2Cl)ccc1[N+](=O)[O-]` [Acifluorfen] here?
**A.** Its pKas is 3.86.

**Q.** For `N#Cc1cc(Br)c(O)c(Br)c1` [Bromoxynil], which pKas is on record?
**A.** The pKas was 4.06.

**Q.** Which pKas does the source give for `COc1c(Cl)ccc(Cl)c1C(=O)O` [Dicamba, 3,6-dichloro-O-anisic acid] here?
**A.** The pKas was 1.87.

**Q.** With `CC(Oc1ccc(Cl)cc1Cl)C(=O)O` (stereo not shown) [Dichlorprop] as the compound, how does the pKas read?
**A.** Its pKas is 2.86.

**Q.** With `CC(Oc1ccc(Oc2ccc(Cl)cc2Cl)cc1)C(=O)O` (stereo not shown) [Diclofop] as the compound, how does the pKas read?
**A.** The pKas was 3.57.

**Q.** Which pKas does the source give for `C[C@@H](Oc1ccc(Oc2ccc(C(F)(F)F)cn2)cc1)C(=O)O` [Fluazifop-p] here?
**A.** The pKas was 2.98.

**Q.** With `CC(Oc1ccc(Oc2ncc(C(F)(F)F)cc2Cl)cc1)C(=O)O` (stereo not shown) [Haloxyfop] as the compound, how does the pKas read?
**A.** Its pKas is 4.33.

**Q.** With `CC(C)C1(C)N=C(c2nc3ccccc3cc2C(=O)O)NC1=O` (stereo not shown) [Imazaquin] as the compound, how does the pKas read?
**A.** The pKas was 3.8.

**Q.** For `CCc1cnc(C2=NC(C)(C(C)C)C(=O)N2)c(C(=O)O)c1` (stereo not shown) [Imazethapyr], which pKas is on record?
**A.** Its pKas is 3.9.

**Q.** For `N#Cc1cc(I)c(O)c(I)c1` [Ioxynil], which pKas is on record?
**A.** Its pKas is 3.96.

**Q.** For `Nc1c(Cl)c(Cl)nc(C(=O)O)c1Cl` [Picloram], which pKas is on record?
**A.** The pKas was 2.3.

**Q.** For `O=C(O)c1c(Cl)ccc2cc(Cl)cnc12` [Quinclorac], which pKas is on record?
**A.** Its pKas is 4.34.

**Q.** With `CCC/C(=N\OCC)C1=C(O)CC(CC(C)SCC)CC1=O` (stereo not shown) [Sethoxydim] as the compound, how does the pKas read?
**A.** The pKas was 4.16.

**Q.** Which pKas does the source give for `O=C(O)COc1nc(Cl)c(Cl)cc1Cl` [Triclopyr, 3,5,6-trichloro-2-pyridyloxyacetic acid] here?
**A.** The pKas was 2.68.

**Q.** Which pKas does the source give for Imazamethbenz here?
**A.** The pKas was 2.9.
